Results: patent US20190343858A1, “METHOD OF REGULATING THE CIRCADIAN RHYTHM OF AN INDIVIDUAL COMPRISING ADMINISTERING AN EFFECTIVE AMOUNT OF A CIRCADIAN RHYTHM REGULATOR CONTAINING 1,2-DI-O-GALLOYL-4,6-O-(S)-HEXAHYDROXYDIPHENOYL-B-D-GLUCOSE” (ORYZA OIL & FAT CHEMICAL CO., LTD,, priority 2017, published 2019)

Test system: BMAL1 gene
Assay: Evaluation of the BMAL1 gene-expression-promotion activity (BMAL1 mRNA amount via reverse-transcribed cDNA)
Type: cell-based
Details: rat-muscle myoblasts C2Cl2, differentiation-induction, cultivated one week; 3 μg/mL; Dunnett, ** p<0.01
Procedure: Differentiation-induction was done to the rat-muscle myoblasts C2Cl2. At the same time, the purple-tea extract of 0.1, 1.0, 3.0 and 10 μg/mL, and the GHG of 0.1, 1.0 and 3 μg/mL, was respectively added to such myoblasts and cultivated for one week. After that, an RNA extraction was done to determine, by using a reverse-transcribed cDNA, the amount of mRNA and of the BMAL1 gene.
A significance-test was done by the Dunnett Method, and the double asterisk ** means p<0.01. Also, no active components were added to the “control,” but the purple-tea extract (GHG-content extract) was added to the “PTE.”

SMILES: O=C(OC1OC2COC(=O)c3cc(O)c(O)c(O)c3-c3c(cc(O)c(O)c3O)C(=O)OC2C(O)C1OC(=O)c1cc(O)c(O)c(O)c1)c1cc(O)c(O)c(O)c1 [GHG, 1,2-di-O-galloyl-4,6-O—(S)-hexahydroxydiphenoyl-ß-D-glucose]
- expression-level of the BMAL1 gene against the Control: significantly was seen to have increased
